Reference: ChEMBL document CHEMBL1201861, “Genomics of Drug Sensitity in Cancer screening data, Wellcome Trust Sanger Institute”

How the values were obtained:
Test in all cases: cells
RMG-I = assay type: functional, cell-based, Homo sapiens; conditions: Homo sapiens, RMG-I
Description: SANGER: Inhibition of human RMG-I cell growth in a cell viability assay.

ASPC1 = assay type: functional, cell-based, Homo sapiens; conditions: Homo sapiens, ASPC1
Description: SANGER: Inhibition of human AsPC-1 cell growth in a cell viability assay.

HuO-3N1 = assay type: functional, cell-based, Homo sapiens; conditions: Homo sapiens, HuO-3N1
Description: SANGER: Inhibition of human HuO-3N1 cell growth in a cell viability assay.

CAL-51 = assay type: functional, cell-based, Homo sapiens; conditions: Homo sapiens, CAL-51
Description: SANGER: Inhibition of human CAL-51 cell growth in a cell viability assay.

COLO-679 = assay type: functional, cell-based, Homo sapiens; conditions: Homo sapiens, COLO-679
Description: SANGER: Inhibition of human COLO-679 cell growth in a cell viability assay.

LU-139 = assay type: functional, cell-based; conditions: Homo sapiens
Description: SANGER: Inhibition of human LU-139 cell growth in a cell viability assay.

KYSE-450 = assay type: functional, cell-based; conditions: Homo sapiens
Description: SANGER: Inhibition of human KYSE-450 cell growth in a cell viability assay.

HT = assay type: functional, cell-based; conditions: Homo sapiens
Description: SANGER: Inhibition of human HT cell growth in a cell viability assay.

U-251 = assay type: functional, cell-based, Homo sapiens; conditions: Homo sapiens, U-251
Description: SANGER: Inhibition of human U251 cell growth in a cell viability assay.

HMV-2 cell line = assay type: functional, cell-based, Homo sapiens; conditions: Homo sapiens, HMV-2
Description: SANGER: Inhibition of human HMV-II cell growth in a cell viability assay.

DOK = assay type: functional, cell-based, Homo sapiens; conditions: Homo sapiens, DOK
Description: SANGER: Inhibition of human DOK cell growth in a cell viability assay.

TE-9 = assay type: functional, cell-based, Homo sapiens; conditions: Homo sapiens, TE-9
Description: SANGER: Inhibition of human TE-9 cell growth in a cell viability assay.

HGC-27 = assay type: functional, cell-based, Homo sapiens; conditions: Homo sapiens, HGC-27
Description: SANGER: Inhibition of human HGC-27 cell growth in a cell viability assay.

NB7 = assay type: functional, cell-based; conditions: Homo sapiens
Description: SANGER: Inhibition of human NB7 cell growth in a cell viability assay.

VA-ES-BJ = assay type: functional, cell-based, Homo sapiens; conditions: Homo sapiens, VA-ES-BJ
Description: SANGER: Inhibition of human VA-ES-BJ cell growth in a cell viability assay.

NCI-H2170 = assay type: functional, cell-based, Homo sapiens; conditions: Homo sapiens, NCI-H2170
Description: SANGER: Inhibition of human NCI-H2170 cell growth in a cell viability assay.

GMS-10 = assay type: functional, cell-based, Homo sapiens; conditions: Homo sapiens, GMS-10
Description: SANGER: Inhibition of human GMS-10 cell growth in a cell viability assay.

SK-LMS-1 = assay type: functional, cell-based, Homo sapiens; conditions: Homo sapiens, SK-LMS-1
Description: SANGER: Inhibition of human SK-LMS-1 cell growth in a cell viability assay.

LoVo = assay type: functional, cell-based; conditions: Homo sapiens
Description: SANGER: Inhibition of human LoVo cell growth in a cell viability assay.

DU-145 = assay type: functional, cell-based, Homo sapiens; conditions: Homo sapiens, DU-145
Description: SANGER: Inhibition of human DU-145 cell growth in a cell viability assay.

OS-RC-2 = assay type: functional, cell-based, Homo sapiens; conditions: Homo sapiens, OS-RC-2
Description: SANGER: Inhibition of human OS-RC-2 cell growth in a cell viability assay.

GP5d = assay type: functional, cell-based, Homo sapiens; conditions: Homo sapiens, GP5d
Description: SANGER: Inhibition of human GP5d cell growth in a cell viability assay.

KP-N-YN = assay type: functional, cell-based; conditions: Homo sapiens
Description: SANGER: Inhibition of human KP-N-YN cell growth in a cell viability assay.

NEC8 = assay type: functional, cell-based, Homo sapiens; conditions: Homo sapiens, NEC8
Description: SANGER: Inhibition of human NEC8 cell growth in a cell viability assay.

NCI-H2452 = assay type: functional, cell-based, Homo sapiens; conditions: Homo sapiens, NCI-H2452
Description: SANGER: Inhibition of human NCI-H2452 cell growth in a cell viability assay.

GOTO = assay type: functional, cell-based, Homo sapiens; conditions: Homo sapiens, GOTO
Description: SANGER: Inhibition of human GOTO cell growth in a cell viability assay.

RT-112 = assay type: functional, cell-based, Homo sapiens; conditions: Homo sapiens, RT-112
Description: SANGER: Inhibition of human RT-112 cell growth in a cell viability assay.

NCI-H226 = assay type: functional, cell-based, Homo sapiens; conditions: Homo sapiens, NCI-H226
Description: SANGER: Inhibition of human NCI-H226 cell growth in a cell viability assay.

NCI-H720 = assay type: functional, cell-based; conditions: Homo sapiens
Description: SANGER: Inhibition of human NCI-H720 cell growth in a cell viability assay.

COR-L23 = assay type: functional, cell-based, Homo sapiens; conditions: Homo sapiens, COR-L23
Description: SANGER: Inhibition of human COR-L23 cell growth in a cell viability assay.

CTV-1 = assay type: functional, cell-based; conditions: Homo sapiens
Description: SANGER: Inhibition of human CTV-1 cell growth in a cell viability assay.

EW-11 = assay type: functional, cell-based, Homo sapiens; conditions: Homo sapiens, EW-11
Description: SANGER: Inhibition of human EW-11 cell growth in a cell viability assay.

NCI-H2052 = assay type: functional, cell-based, Homo sapiens; conditions: Homo sapiens, NCI-H2052
Description: SANGER: Inhibition of human NCI-H2052 cell growth in a cell viability assay.

PSN1 = assay type: functional, cell-based, Homo sapiens; conditions: Homo sapiens, PSN1
Description: SANGER: Inhibition of human PSN1 cell growth in a cell viability assay.

CAL-12T = assay type: functional, cell-based, Homo sapiens; conditions: Homo sapiens, CAL-12T
Description: SANGER: Inhibition of human CAL-12T cell growth in a cell viability assay.

OVCAR-3 = assay type: functional, cell-based, Homo sapiens; conditions: Homo sapiens, OVCAR-3
Description: SANGER: Inhibition of human OVCAR-3 cell growth in a cell viability assay.

NCI-H2030 = assay type: functional, cell-based, Homo sapiens; conditions: Homo sapiens, NCI-H2030
Description: SANGER: Inhibition of human NCI-H2030 cell growth in a cell viability assay.

MEG-01 = assay type: functional, cell-based; conditions: Homo sapiens
Description: SANGER: Inhibition of human MEG-01 cell growth in a cell viability assay.

HN = assay type: functional, cell-based, Homo sapiens; conditions: Homo sapiens, HN
Description: SANGER: Inhibition of human HN cell growth in a cell viability assay.

DEL = assay type: functional, cell-based; conditions: Homo sapiens
Description: SANGER: Inhibition of human DEL cell growth in a cell viability assay.

PC-14 = assay type: functional, cell-based, Homo sapiens; conditions: Homo sapiens, PC-14
Description: SANGER: Inhibition of human PC-14 cell growth in a cell viability assay.

KE-37 = assay type: functional, cell-based; conditions: Homo sapiens
Description: SANGER: Inhibition of human KE-37 cell growth in a cell viability assay.

IA-LM = assay type: functional, cell-based, Homo sapiens; conditions: Homo sapiens, IA-LM
Description: SANGER: Inhibition of human IA-LM cell growth in a cell viability assay.

TCC-SUP = assay type: functional, cell-based, Homo sapiens; conditions: Homo sapiens, TCC-SUP
Description: SANGER: Inhibition of human TCCSUP cell growth in a cell viability assay.

SAS = assay type: functional, cell-based, Homo sapiens; conditions: Homo sapiens, SAS
Description: SANGER: Inhibition of human SAS cell growth in a cell viability assay.

C-33-A = assay type: functional, cell-based, Homo sapiens; conditions: Homo sapiens, C-33-A
Description: SANGER: Inhibition of human C-33-A cell growth in a cell viability assay.

SK-N-FI = assay type: functional, cell-based, Homo sapiens; conditions: Homo sapiens, SK-N-FI
Description: SANGER: Inhibition of human SK-N-FI cell growth in a cell viability assay.

U2OS = assay type: functional, cell-based, Homo sapiens, U-2-OS; conditions: Homo sapiens, U2OS
Description: SANGER: Inhibition of human U-2-OS cell growth in a cell viability assay.

GI-ME-N = assay type: functional, cell-based, Homo sapiens; conditions: Homo sapiens, GI-ME-N
Description: SANGER: Inhibition of human GI-ME-N cell growth in a cell viability assay.

MOLT-4 = assay type: functional, cell-based; conditions: Homo sapiens
Description: SANGER: Inhibition of human MOLT-4 cell growth in a cell viability assay.

NCI-H810 = assay type: functional, cell-based, Homo sapiens; conditions: Homo sapiens, NCI-H810
Description: SANGER: Inhibition of human NCI-H810 cell growth in a cell viability assay.

HCC1395 = assay type: functional, cell-based, Homo sapiens; conditions: Homo sapiens, HCC1395
Description: SANGER: Inhibition of human HCC1395 cell growth in a cell viability assay.

## CCOc1nc(NC(=O)Cc2cc(OC)ccc2OC)cc(N)c1C#N
RMG-I
  IC50: > 10 µM
ASPC1
  IC50: > 10 µM
HuO-3N1
  IC50: > 10 µM
CAL-51
  IC50: > 10 µM
COLO-679
  IC50: > 10 µM
LU-139
  IC50: > 10 µM
KYSE-450
  IC50: > 10 µM
HT
  IC50: > 10 µM
U-251
  IC50: > 10 µM
HMV-2 cell line
  IC50: > 10 µM
DOK
  IC50: > 10 µM
TE-9
  IC50: > 10 µM
HGC-27
  IC50: > 10 µM
NB7
  IC50: 2.27 µM
VA-ES-BJ
  IC50: > 10 µM
NCI-H2170
  IC50: > 10 µM
GMS-10
  IC50: > 10 µM
SK-LMS-1
  IC50: > 10 µM
LoVo
  IC50: > 10 µM
DU-145
  IC50: > 10 µM
OS-RC-2
  IC50: > 10 µM
GP5d
  IC50: > 10 µM
KP-N-YN
  IC50: > 10 µM
NEC8
  IC50: > 10 µM
NCI-H2452
  IC50: > 10 µM
GOTO
  IC50: > 10 µM
RT-112
  IC50: > 10 µM
NCI-H226
  IC50: > 10 µM
NCI-H720
  IC50: > 10 µM
COR-L23
  IC50: > 10 µM
CTV-1
  IC50: > 10 µM
EW-11
  IC50: > 10 µM
NCI-H2052
  IC50: > 10 µM
PSN1
  IC50: > 10 µM
CAL-12T
  IC50: > 10 µM
OVCAR-3
  IC50: > 10 µM
NCI-H2030
  IC50: > 10 µM
MEG-01
  IC50: > 10 µM
HN
  IC50: > 10 µM
DEL
  IC50: > 10 µM
PC-14
  IC50: > 10 µM
KE-37
  IC50: > 10 µM
IA-LM
  IC50: > 10 µM
TCC-SUP
  IC50: > 10 µM
SAS
  IC50: > 10 µM
C-33-A
  IC50: > 10 µM
SK-N-FI
  IC50: > 10 µM
U2OS
  IC50: > 10 µM
GI-ME-N
  IC50: > 10 µM
MOLT-4
  IC50: > 10 µM
NCI-H810
  IC50: > 10 µM
HCC1395
  IC50: > 10 µM

## C=CCNC1=C2C[C@@H](C)C[C@H](OC)[C@H](O)[C@@H](C)/C=C(\C)[C@H](OC(N)=O)[C@@H](OC)/C=C\C=C(/C)C(=O)NC(=CC1=O)C2=O [TANESPIMYCIN]
RMG-I
  IC50: > 1 µM
ASPC1
  IC50: 0.152 µM
HuO-3N1
  IC50: 0.0524 µM
CAL-51
  IC50: 0.014 µM
COLO-679
  IC50: 0.112 µM
LU-139
  IC50: > 1 µM
KYSE-450
  IC50: 0.986 µM
HT
  IC50: > 1 µM
U-251
  IC50: 0.105 µM
HMV-2 cell line
  IC50: 0.12 µM
DOK
  IC50: 0.049 µM
TE-9
  IC50: 0.218 µM
HGC-27
  IC50: 0.0051 µM
NB7
  IC50: > 1 µM
VA-ES-BJ
  IC50: 0.0445 µM
NCI-H2170
  IC50: 0.175 µM
GMS-10
  IC50: 0.067 µM
SK-LMS-1
  IC50: > 1 µM
LoVo
  IC50: > 1 µM
DU-145
  IC50: > 1 µM
OS-RC-2
  IC50: 0.245 µM
GP5d
  IC50: 0.141 µM
KP-N-YN
  IC50: > 1 µM
NEC8
  IC50: > 1 µM
NCI-H2452
  IC50: 0.14 µM
GOTO
  IC50: 0.452 µM
RT-112
  IC50: 0.14 µM
NCI-H226
  IC50: > 1 µM
NCI-H720
  IC50: 0.0255 µM
COR-L23
  IC50: 0.468 µM
CTV-1
  IC50: 0.527 µM
EW-11
  IC50: > 1 µM
NCI-H2052
  IC50: > 1 µM
PSN1
  IC50: 0.046 µM
CAL-12T
  IC50: 0.428 µM
OVCAR-3
  IC50: 0.593 µM
NCI-H2030
  IC50: 0.0541 µM
MEG-01
  IC50: > 1 µM
HN
  IC50: 0.0427 µM
DEL
  IC50: 0.185 µM
PC-14
  IC50: 0.132 µM
KE-37
  IC50: > 1 µM
IA-LM
  IC50: > 1 µM
TCC-SUP
  IC50: 0.0596 µM
SAS
  IC50: 0.127 µM
C-33-A
  IC50: > 1 µM
SK-N-FI
  IC50: > 1 µM
U2OS
  IC50: 0.172 µM
GI-ME-N
  IC50: 0.772 µM
MOLT-4
  IC50: > 1 µM
NCI-H810
  IC50: > 1 µM
HCC1395
  IC50: > 1 µM

## CC(=O)O[C@@H]1[C@@H](OC(C)=O)[C@@H](O)[C@H](Oc2c(-c3ccc(O)cc3)oc3cc(O)cc(O)c3c2=O)O[C@H]1C
RMG-I
  IC50: > 10 µM
ASPC1
  IC50: > 10 µM
HuO-3N1
  IC50: 2.78 µM
CAL-51
  IC50: > 10 µM
COLO-679
  IC50: > 10 µM
LU-139
  IC50: > 10 µM
KYSE-450
  IC50: > 10 µM
HT
  IC50: > 10 µM
U-251
  IC50: > 10 µM
HMV-2 cell line
  IC50: > 10 µM
DOK
  IC50: > 10 µM
TE-9
  IC50: > 10 µM
HGC-27
  IC50: > 10 µM
NB7
  IC50: > 10 µM
VA-ES-BJ
  IC50: > 10 µM
NCI-H2170
  IC50: > 10 µM
GMS-10
  IC50: > 10 µM
SK-LMS-1
  IC50: > 10 µM
LoVo
  IC50: > 10 µM
DU-145
  IC50: > 10 µM
OS-RC-2
  IC50: > 10 µM
GP5d
  IC50: > 10 µM
KP-N-YN
  IC50: > 10 µM
NEC8
  IC50: > 10 µM
NCI-H2452
  IC50: > 10 µM
GOTO
  IC50: > 10 µM
RT-112
  IC50: > 10 µM
NCI-H226
  IC50: > 10 µM
NCI-H720
  IC50: > 10 µM
COR-L23
  IC50: > 10 µM
CTV-1
  IC50: > 10 µM
EW-11
  IC50: > 10 µM
NCI-H2052
  IC50: > 10 µM
PSN1
  IC50: > 10 µM
CAL-12T
  IC50: > 10 µM
OVCAR-3
  IC50: > 10 µM
NCI-H2030
  IC50: > 10 µM
MEG-01
  IC50: > 10 µM
HN
  IC50: > 10 µM
DEL
  IC50: > 10 µM
PC-14
  IC50: > 10 µM
KE-37
  IC50: > 10 µM
IA-LM
  IC50: > 10 µM
TCC-SUP
  IC50: > 10 µM
SAS
  IC50: > 10 µM
C-33-A
  IC50: > 10 µM
SK-N-FI
  IC50: > 10 µM
U2OS
  IC50: > 10 µM
GI-ME-N
  IC50: > 10 µM
MOLT-4
  IC50: > 10 µM
NCI-H810
  IC50: > 10 µM
HCC1395
  IC50: > 10 µM
